Measurements as given in patent EP0925064B1, “5-ANDROSTENE 3 beta,17alpha DIOL AS AN INHIBITOR OF TUMOR GROWTH” (LORIA, Roger M., priority 1996, dated 1997).

What was measured:
P388D1 cells = test: Growth of lymphoid neoplasm cells in the presence of RU486; type: cell-based; settings: RU486 at 0.5 µM and 1.0 µM
Procedure: (§1) For cell proliferation assays, cell suspensions were prepared by trypsinization of cells from cultures prepared in accord with methods described above. Cell viability was determined by trypan blue exclusion. The cells were then seeded in flat-bottom 96-well microtiter plates at a density of 2X10^3 cells/well and were allowed to rest for 48 hours in order to adhere. Non-adherent dead cells were removed by aspiration. Cells were then grown in media without phenol red. Some of the media contained supplements as indicated above. The active agents or vehicle control were added to the media. The cells were then grown for six days. Media was changed on the samples every 48 hours. On day 6, cells were pulsed with 1 µCi[…] for the last 6 hours of incubation before harvesting onto glass filter using a HPD cell harvester (Cambridge Technology, Watertown, Massachusetts) and counted on a KLB scintillation counter.
Effect of αAED on growth of lymphoid neoplasm (P388D1 cells obtained from the American Type Culture Collection) in the presence of RU486 at concentration of 0.5 µM and 1.0 µM was studied in accord with the methods described above.

ZR-75-1 cells [1] = test: Cell count and viability by trypan blue exclusion; type: cell-based, human
Procedure: (§2) Cells were first seeded at initial density of 1x10^5 cells per ml in quadruplicates in 24 multi-well flat bottom plates (Costar). Cells were then allowed to adhere and grow in phenol red-free […] media supplemented with 10 % heat-inactivated fetal calf serum (FCS), 200 µM L-glutamine, 10 mM HEPES, 2.5 U/ml penicillin and 2.5 µg/ml streptomycin in 5% CO2 at 37°C. After 48 hours, four wells were sacrificed and counted to determine plating efficiency. In the remaining wells, medium was removed by aspiration and cells in each well were exposed to the media containing the specified steroid. The controls containing only medium or medium with vehicle were also prepared. In all samples, medium was changed every 48 hours. At the pre-established time-point. Cells were removed by trypsinization and washed. Cell number and viability were determined by trypan blue exclusion using a hemocytometer. Parallel cultures were also run to determine cell proliferation.
(§3) Initial tests were carried out to determine the optimal (maximal) dose of αAED required to inhibit growth of the ZR-75-1 cells in in vitro as determined by tritiated tymidine incorporation. […] To ensure that inhibition was not due to cytotoxicity, cell count and viability were assessed by trypan blue exclusion.

ZR-75-1 cells [2] = test: Cell proliferation assay (3H-thymidine incorporation, 6 days); type: cell-based, human; settings: for cell proliferation (Example 1): six day period
Procedure: The ZR-75-1 cell line (passage 89) was obtained from the American Type Culture Collection (Rockville, Maryland). The cells were cultured in RPMI-1640 medium containing 10% heat-inactivated fetal calf serum, 200 µM L-glutamine, […], 1.5 U/ml penicillin, and 1.5 µg/ml streptomycin in 5% CO2 at 37°C. The cells were passaged twice weekly.
as §2, §1, §3
ZR-75-1 cells (2X10^3) were treated as described above over a six day period with differing concentrations of αAED or with vehicle-only cultures. The medium was changed every 48 hours. Cells were pulsed with ^3H-thymidine for the last six hours of incubation.

RAW 264.7 = test: Proliferation of macrophage myeloma cells; type: cell-based, murine
Procedure: as §1
Effects of αAED at doses of 50 ηM and 100 ηM doses on murine macrophage myeloma cells (RAW 264.7, obtained from the American Type Culture Collection) was studied.

Structure (SMILES)	growth of lymphoid neoplasm in the presence of RU486 (Example 8) (P388D1 cells)	cytotoxicity (cell count and viability) (ZR-75-1 cells [1])	proliferation in the presence of estradiol (Example 3) (ZR-75-1 cells [2]; 1 ηM estradiol, higher doses of αAED, 6 day period)	cell proliferation (Example 1) (ZR-75-1 cells [2]; 6.25 ηM)	cell proliferation (Example 1) (ZR-75-1 cells [2]; 25 ηM)	cell proliferation (Example 1) (ZR-75-1 cells [2]; 50 ηM)	maximal dose of anti-proliferative effect (ZR-75-1 cells [2]; ZR-75-1 cells, 6 days)	growth of ZR-75-1 cells (ZR-75-1 cells [2]; concentration of 25 nM or greater)	proliferation of ZR-75-1 cells compared with the vehicle control (ZR-75-1 cells [2]; concentrations between 6.25 and 12.5 ηM (P<0.01))	effect on the growth of ZR-75-1 cells compared to vehicle control (ZR-75-1 cells [2]; doses ranging from 3.13 ηM to 50 ηM, after 6 days)	proliferation of cells in the presence of RU486 (Example 5) (ZR-75-1 cells [2]; αAED with 0.5 µM RU486)	proliferation of cells in the presence of βAED (Example 2) (ZR-75-1 cells [2]; βAED constant at 2.5 ηM, all concentrations of αAED)	antiproliferative effects in the presence of Flutamide (Example 4) (ZR-75-1 cells [2]; ≥6.25 ηM αAED, with Flutamide, 6 day period)	proliferation of murine macrophage myeloma cells (Example 9) (RAW 264.7; 50 ηM)	proliferation of murine macrophage myeloma cells (Example 9) (RAW 264.7; 100 ηM)	antiproliferative effect on the growth of the ZR-75-1 cells (ZR-75-1 cells [2]; alone at 100 ηM)
C[C@]12CC[C@H]3[C@@H](CC=C4C[C@@H](O)CC[C@@]43C)[C@@H]1CC[C@H]2O [αAED, 5-androstene 3β,17α diol]	increased effectiveness over use of one agent	not toxic	suppressed proliferation	increasing proliferation	decreasing cell proliferation	marked decrease	100 ηM	significantly inhibited the growth	stimulated proliferation	biphasic effect	synergistic action to decrease proliferation of cells	decreased proliferation	greatly enhanced	significant inhibition of proliferation	significant inhibition of proliferation	
C[C@]12CC[C@H]3[C@@H](CC=C4C[C@@H](O)CC[C@@]43C)[C@@H]1CC[C@@H]2O [βAED, 5-androstene 3β,17β diol, reference compound]																did not have any antiproliferative effect
